Assay results from US7422793B2, “Non-toxic corrosion-protection rinses and seals based on rare earth elements” (University of Dayton, priority 2002, dated 2008).
Like-named read-outs stand apart in the source and are kept apart here.

What was measured:
[1] = pH change on placing the compound into deionized water of pH 7; assay type: physicochemical; conditions: simple laboratory experiment
Excerpt: A simple laboratory experiment confirms this effect. […] However, if icosahedral Ce(NO3)6^2− (note that this ion contains no hydroxide) is placed into deionized water of pH 7, a quite remarkable pH drop to −1 can be observed. The released tetravalent cerium ions will scavenge virtually all of the available OH^− ions in solution (possibly even degrading H2O itself to obtain […]), resulting in this dramatic pH drop.

[2] = cited from earlier work; for oxidation-reduction potential: in acid solution, couple to the trivalent ion; for calculated redox potential: in acidic solution, Nugent et al. 1971
[3] = cited from earlier work

Molecule | Solubility in Water ([3]; pH 7) | also measured
O=[N+]([O-])O.O=[N+]([O-])O.O=[N+]([O-])O.O=[N+]([O-])O.O=[N+]([O-])O.O=[N+]([O-])O.[Ce] [Ce(NO3)6^2−, hexanitratocerate (IV)] | – | pH after placing into deionized water of pH 7 [1]: −1
[Ce+4].[OH-].[OH-].[OH-].[OH-] [Ce(OH)4, ceric hydroxide, reference compound] | – | pH after placing into deionized water of pH 7 [1]: only a minor pH change
[Ce+4] [Ce^+4, tetravalent cerium ion] | – | oxidation-reduction potential [2]: +1.72 V
[Pr+4] [Pr^+4, tetravalent praseodymium ion] | – | calculated redox potential [2]: +3.2 V
[Na+].[O]=[Al-]=[O] [Sodium aluminate] | 1 × 10^0 mole/L | –
[F][Nb-2]([F])([F])([F])([F])([F])[F].[Na+].[Na+] [Sodium heptafluoroniobate] | 0.05 mol/L | –
[F][Ta-2]([F])([F])([F])([F])([F])[F].[Na+].[Na+] [Sodium heptafluorotantalate] | 0.05 mol/L | –
[F][Al-3]([F])([F])([F])([F])[F].[Na+].[Na+].[Na+] [Sodium hexafluoroaluminate] | 0.0029 mol/L | –
[F][Sb-]([F])([F])([F])([F])[F].[Na+] [Sodium hexafluoroantimonate] | 4.97 × 10^0 mole/L | –
[F][Ge-2]([F])([F])([F])([F])[F].[Na+].[Na+] [Sodium hexafluorogermanate] | 0.01 mol/L | –
[F][Hf-2]([F])([F])([F])([F])[F].[Na+].[Na+] [Sodium hexafluorohafnate] | 0.07 mol/L | –
F[Si-2](F)(F)(F)(F)F.[Na+].[Na+] [Sodium hexafluorosilicate] | – | Solubility in Water ([3]; fluoride preparative agents, at or near 25° C. and at or near pH 7): 0.035 mol/L
[F-].[F-].[F-].[F-].[F-].[F-].[Na+].[Na+].[Sn+4] [Sodium hexafluorostannate] | 0.01 mol/L | –
[F][Zr-2]([F])([F])([F])([F])[F].[Na+].[Na+] [Sodium hexafluorozirconate] | 0.06 mol/L | –
[Na+].[Na+].[O]=[Mo](=[O])([O-])[O-] [Sodium molybdate] | 215 mol/L | –
[Na+].[O]=[Nb](=[O])[O-] [Sodium niobate] | 0.059 mol/L | –
[O-][Cl+3]([O-])([O-])O [Sodium perchlorate] | 12 mol/L | –
[Na+].[Na+].[O-][O-] [Sodium peroxide] | 1 × 10^0 mole/L | –
O=[Se](=O)(O)O [Sodium selenate] | 1.2 × 10^0 mole/L | –
[Na+].[Na+].[O]=[Sn]([O-])[O-] [Sodium stannate] | 2.3 × 10^0 mole/L | –
[Na+].[O-2].[O-2].[O-2].[Ta+5] [Sodium tantalate] | 0.0055 mol/L | –
[O-][Cl+2]([O-])[O-].[O-][Cl+2]([O-])[O-].[Sr+2] [Strontium chlorate] | 6.9 × 10^0 mole/L | –
[O-][Cl+3]([O-])([O-])[O-].[O-][Cl+3]([O-])([O-])[O-].[Sr+2] [Strontium perchlorate] | 13 mol/L | –
[Tb+4] [Tb^+4, tetravalent terbium ion] | – | calculated redox potential [2]: +3.2 V

Molecule | Solubility in Water ([3]; pH 7) | also measured
O[Te](O)(O)(O)(O)O [Telluric acid] | 0.5 mol/L | –
[O]=[W](=[O])([OH])[OH] [Tungstic acid] | 0.8 mol/L | –
[O-][Cl+2]([O-])[O-].[O-][Cl+2]([O-])[O-].[Zn+2] [Zinc chlorate] | 8.6 × 10^0 mole/L | –
F[Si-2](F)(F)(F)(F)F.[Zn+2] [Zinc hexafluorosilicate] | 1.11 × 10^0 mole/L | –
[O-][Cl+3]([O-])([O-])[O-].[O-][Cl+3]([O-])([O-])[O-].[Zn+2] [Zinc perchlorate] | 1 × 10^0 mole/L | –
Ammonium selenate | 6.0 × 10^0 mole/L | –
Calcium vanadate | 0.5 mol/L | –
Cesium bromate | 0.14 mol/L | –
Cesium germanate | 0.5 mol/L | –
Cesium tungstate | 5 × 10^0 mole/L | –
Chloroperoxybenzoic acid | 10 mol/L | –
Copper (II) hexafluorosilicate | 7.4 × 10^0 mole/L | –
Iron (III) hexafluorosilicate | “soluble” | –
Lithium bromate | 4.85 × 10^0 mole/L | –
Lithium germanate | 0.063 mol/L | –
Magnesium hexaniobate | 0.088 mol/L | –
Magnesium tungstate hydrate | 0.72 mol/L | –
Magnesium vanadate | 1 × 10^0 mole/L | –
Manganese (II) Fluorosilicate | 4.59 × 10^0 mole/L | –
Potassium arsenate | 0.74 mol/L | –
Potassium fluoroaluminate | 0.0061 mol/L | –
Potassium germanate | 1 × 10^0 mole/L | –
Potassium niobate | 0.05 mol/L | –
Potassium superoxide | 1 × 10^0 mole/L | –

Molecule | Solubility in Water ([3]; pH 7) | also measured
Potassium tungstate | 142 mol/L | –
Potassium vanadate | 1 × 10^0 mole/L | –
Rubidium bromate | 0.14 mol/L | –
Rubidium germanate | 0.5 mol/L | –
Rubidium heptafluoroniobate | 0.1 mol/L | –
Rubidium heptafluorotantalate | 0.1 mol/L | –
Rubidium hexafluorohafnate | 0.19 mol/L | –
Rubidium hexafluorostannate | 0.062 mol/L | –
Rubidium hexafluorotitanate | 0.025 mol/L | –
Rubidium hexafluorozirconate | 0.0848 mol/L | –
Rubidium periodate | 0.024 mol/L | –
Rubidium stannate | 5 × 10^0 mole/L | –
Rubidium tellurate | 0.01 mol/L | –
Rubidium tungstate | 50 mol/L | –
Silver (I) fluorogallate | 1 × 10^0 mole/L | –
Sodium perborate | 0.17 mol/L | –
Sodium tungstate | 249 mol/L | –
Strontium bromate | 0.91 mol/L | –
Strontium nitrite | 3.8 × 10^0 mole/L | –
Tin (IV) fluoride | 1 × 10^0 mole/L | –
Vanadium pentoxide | 0.044 mol/L | –
Zinc nitrite | 1 × 10^0 mole/L | –
hexavalent chromium [Cr^+6, reference compound] | – | oxidation-reduction potential [2]: +1.36 V
